According to patent US20240383941A1, “3-ALPHA SUBSTITUTED 3-BETA-HYDROXY-17-OXIMATED ANDROSTANE COMPOUND FOR MODULATION OF THE ALPHA-3 SUBTYPE OF THE GABAA RECEPTOR” (priority 2021, published 2024):
Where “and” joins values, the source holds several entries; their conditions need not be identical. Equal values may be shown once. Entries after “also recorded” stand apart in the source; their conditions may differ.

How the values were obtained:
[1] = molecular target: T1, human α3β3γ2L GABAA receptor subtype (Homo sapiens, UniProt P28472+P34903); test: Whole-cell patch clamp (Dynaflow) on HEK-293 cells expressing the GABAA receptor α3β3γ2L subtype; format: cell-based; details: for 100 μM GABA mediated current response, area under curve, Mean ± SEM: 1 μM steroid + 100 μM GABA, relative to 100 μM GABA (set as 0%); for reduction (block) of the THDOC enhanced effect / effect on GABAs own effect on current response / reduction of the GABA effect: 100 μM GABA; for reduction (block) of the THDOC enhanced effect / reduction of the GABA effect: stated as size of reduction; for activation of the receptor / own effect in absence of GABA: steroid alone, in absence of GABA and/or THDOC
T1 construct: expressed in transfected cells; host or cells: HEK-293 cells (wild-type cells obtained from Pasteur Institute, Paris), permanently transfected
T1 sequence (P34903 29-492): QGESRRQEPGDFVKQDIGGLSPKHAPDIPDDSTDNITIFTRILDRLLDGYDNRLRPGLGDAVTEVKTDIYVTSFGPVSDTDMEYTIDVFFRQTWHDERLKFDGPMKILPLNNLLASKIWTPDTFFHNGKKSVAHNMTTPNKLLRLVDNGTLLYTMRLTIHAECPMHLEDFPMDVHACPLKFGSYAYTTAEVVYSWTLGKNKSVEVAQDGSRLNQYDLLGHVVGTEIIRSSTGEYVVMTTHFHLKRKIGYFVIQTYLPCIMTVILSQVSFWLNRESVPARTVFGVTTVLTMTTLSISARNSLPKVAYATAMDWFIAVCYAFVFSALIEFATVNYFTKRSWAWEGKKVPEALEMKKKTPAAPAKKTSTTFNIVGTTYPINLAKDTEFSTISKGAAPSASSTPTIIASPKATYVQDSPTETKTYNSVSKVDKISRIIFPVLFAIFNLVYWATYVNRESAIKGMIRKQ
T1 sequence (P28472 26-473): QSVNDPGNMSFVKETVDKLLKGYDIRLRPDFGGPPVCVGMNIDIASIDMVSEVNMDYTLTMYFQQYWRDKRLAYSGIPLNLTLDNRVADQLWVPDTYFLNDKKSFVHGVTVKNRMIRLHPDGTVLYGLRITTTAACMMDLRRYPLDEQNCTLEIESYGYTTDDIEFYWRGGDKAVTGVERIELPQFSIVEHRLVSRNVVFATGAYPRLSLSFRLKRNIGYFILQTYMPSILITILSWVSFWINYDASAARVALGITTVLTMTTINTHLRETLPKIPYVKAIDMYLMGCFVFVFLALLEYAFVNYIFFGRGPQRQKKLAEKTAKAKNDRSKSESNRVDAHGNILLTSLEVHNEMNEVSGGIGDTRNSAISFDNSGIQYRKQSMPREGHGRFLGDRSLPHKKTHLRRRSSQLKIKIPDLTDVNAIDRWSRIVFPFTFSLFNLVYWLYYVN
T1 sequence (P18507 40-475 partner): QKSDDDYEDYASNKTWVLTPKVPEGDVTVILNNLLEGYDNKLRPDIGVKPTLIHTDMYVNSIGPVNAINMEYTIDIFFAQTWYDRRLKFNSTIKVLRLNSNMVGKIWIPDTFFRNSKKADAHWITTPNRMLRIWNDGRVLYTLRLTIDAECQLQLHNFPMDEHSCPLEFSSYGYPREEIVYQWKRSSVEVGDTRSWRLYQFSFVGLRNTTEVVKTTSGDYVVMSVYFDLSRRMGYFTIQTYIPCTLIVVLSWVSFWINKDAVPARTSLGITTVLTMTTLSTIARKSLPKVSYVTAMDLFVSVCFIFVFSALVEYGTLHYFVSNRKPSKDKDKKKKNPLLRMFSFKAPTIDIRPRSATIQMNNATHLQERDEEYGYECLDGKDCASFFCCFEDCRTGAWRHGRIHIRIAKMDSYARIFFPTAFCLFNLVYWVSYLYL
Protocol: Aim: To investigate the effect of 3α-ethynyl-3β-hydroxy-5α-androstan-17-methoxime and 3α-ethyl-3β-hydroxy-5α-androstan-17-oxime, respectively, on the GABAA receptor function. Experiments were performed both in absence and in presence of the GAMS tetrahydrodeoxycorticosterone (THDOC), in the absence and presence of GABA. In these tests the protocol was optimized to be similar to the physiological conditions in the synaptic cleft.
Cell culture: Wild-type HEK-293 cells passage 4 (obtained from Pasteur Institute, Paris, France), permanently transfected with cDNA to express the human α3β3γ2L GABAA receptor subtype, were seeded in cell bind culture flasks, grown and maintained at the temperature of +37° C., with a gas mixture of 5% CO2 in the cell incubator. The transfected cells were used for patch-clamp experiments minimum one passages after defrosting and 3-5 days after seeding. The α3β3γ2L cells were seeded for maximal 15 times.
Electrophysiological recordings: Whole cell patch technique was used to record whole-cell currents from the cells. Patch electrodes were pulled from 1.5 mm O.D., 0.86 mm I.D. borosilicate capillary glass without filament. […] After compensation for liquid junction potential a steady holding potential of −17 mV was used in all experiments. The cells were added to the chip (see below) and kept in EC solution (see above). EC solution with or without steroids and GABA were applied by the Dynaflow™ system (see below). All experiments were performed at room temperature (21-23° C.).
Dynaflow™ system: Dynaflow™ system with Resolve chips was used for all patch-clamp experiments including steroids. The Resolve chip consists of a glass chip enclosed by a PEEK plastic top part and a supporting plastic bottom part. Both wells and channels are glass coated. The channel width is 150 μm and the height 50 μm. The well volume is 150 μL. Run time at the flow rate of 26 μL/min was 90 min. The pump settings were as follows: BD Plastikpak™ 2 mL syringe with inner diameter of 8.1 mm was used. The syringe pump flow rate for Resolve chip was 26 μL/min.
The Resolve chip allows synchronized control of switching between 16 experimental solutions. Laminar flow at each solution outlet of the microfluidic chip prevents mixing, and a computer-controlled stage motor is used to move the chip relative to the patch pipette, allowing for relatively rapid solution exchange around the membrane patch. PClamp 9.0 software, DigiData 1322A converter and AxonPatch 200B were used to generate command pulses and collect data. Clampfit 10.3, Prism 6.0 and excel were used for data analyzes.
GABA and steroids: GABA was dissolved in EC-solution by ultrasound for about 20 minutes at maximal 40° C. to the concentration of 10 mM.
THDOC was dissolved in ethanol 99.5% to the concentration of 0.2 mM and tested steroids dissolved in ethanol 99.5% to the concentration of 2 mM (with ultrasound). The final ethanol concentration was 0.1% in all end-solutions, including the wash solution (EC) and the solution with GABA alone. End-solutions are the solutions added into the wells of the chip.
Protocol: The binding site of THDOC is in the […] region of the receptor. To achieve stable response, the cell was exposed to steroid (THDOC and/or steroid) 20 seconds before GABA application. The standard protocol as follow: 20 s preincubation of steoids (100 nM THDOC alone or in combination with one of 1 μM 3α-ethynyl-3β-hydroxy-5α-androstan-17-methoxime and 3α-ethyl-3β-hydroxy-5α-androstan-17-oxime), followed by 2 s application of 100 μM GABA±steroids (100 nM THDOC alone or in combination with one of 1 μM 3α-ethynyl-3β-hydroxy-5α-androstan-17-methoxime and 3α-ethyl-3β-hydroxy-5α-androstan-17-oxime). Washout time was 120 s.
Steroid (3α-ethynyl-3β-hydroxy-5α-androstan-17-methoxime or 3α-ethyl-3β-hydroxy-5α-androstan-17-oxime)+THDOC, in absence of GABA, were therefore not analyzed. […]

[2] = Weight increase in growing male rats, experiment 1 (5 days IV); format: in vivo, Male Wistar rats
Protocol: (§1) Animals: Male Wistar rats were kept in group cages, with three animals per cage, from delivery and throughout the period of experiments. The individual animals were marked so that they could be identified throughout the experiment duration. The animals weight an average of 152 g upon arrival. A reversed light dark (12:12 h) cycle was used with the dark period onset at 0600 hrs. Altogether fifty-six (56) rats were used in this study (experiment 1+2). The animals were delivered from the breeder Taconic (Denmark). The study protocol was approved by the Regional Ethics Committee of Umea University, Sweden.
(§2) Feeding: Standard chow and water were available ad libitum. A reversed 12-h dark-light cycle with lights off at 10.00 am and lights on at 22.00 pm was used. For identification, the rats were marked with a permanent marker on the tail. To avoid the endogenous allopregnanolone fluctuations that are present in the estrous cycle of female rats, male rats were chosen (Frye et al. 2000). The animals were allowed to acclimatize for at least 3 weeks before start of the experimental sessions. During this period, the rats were repeatedly handled and allowed habituation to the new environment and to all new procedures, to minimize stress during the experiments.
(§3) After 14 days of triad housing, handling and injection training of the animals, the animals were treated for 5 days with IV injections in experiment 1 and 10 days with a daily subcutaneous injection of the assigned treatment in experiment 2 (Table 3 and 4). The injections were given at 08.00 every morning. The animals were weighed the day before onset of the treatment and at the last day of injection i.e. on the 5th or 10th day of treatment. Weight was taken at the time of the last injection. […] The results are shown in FIG. 2 (experiment 1) and FIG. 3 (experiment 2), respectively.

GABAA receptor = details: table 3 in WO 09/142594; cited from earlier work
[3] = Weight increase in growing male rats, experiment 2 (10 days s.c.); format: in vivo, Male Wistar rats
Protocol: as §1, §2, §3

[4] = molecular target: T2, GABAA receptor subtype α1β2γ2 (Homo sapiens, UniProt P14867+P47870); test: Patch clamp on GABAA receptor subtype α1β2γ2, essentially as described in Example 2; format: cell-based
T2 construct: expressed in transfected cells
T2 sequence (P14867 28-456): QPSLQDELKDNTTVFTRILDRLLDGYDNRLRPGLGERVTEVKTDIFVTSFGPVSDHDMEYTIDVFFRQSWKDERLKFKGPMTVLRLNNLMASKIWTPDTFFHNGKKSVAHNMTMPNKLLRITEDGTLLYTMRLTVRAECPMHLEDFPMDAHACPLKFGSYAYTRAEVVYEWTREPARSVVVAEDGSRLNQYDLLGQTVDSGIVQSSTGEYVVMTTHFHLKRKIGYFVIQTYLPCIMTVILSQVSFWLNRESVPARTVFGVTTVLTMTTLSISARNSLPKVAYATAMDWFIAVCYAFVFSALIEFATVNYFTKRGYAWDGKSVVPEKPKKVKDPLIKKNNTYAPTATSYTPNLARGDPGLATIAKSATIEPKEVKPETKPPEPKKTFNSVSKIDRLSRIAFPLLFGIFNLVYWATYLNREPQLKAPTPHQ
T2 sequence (P47870 25-512 limits assumed): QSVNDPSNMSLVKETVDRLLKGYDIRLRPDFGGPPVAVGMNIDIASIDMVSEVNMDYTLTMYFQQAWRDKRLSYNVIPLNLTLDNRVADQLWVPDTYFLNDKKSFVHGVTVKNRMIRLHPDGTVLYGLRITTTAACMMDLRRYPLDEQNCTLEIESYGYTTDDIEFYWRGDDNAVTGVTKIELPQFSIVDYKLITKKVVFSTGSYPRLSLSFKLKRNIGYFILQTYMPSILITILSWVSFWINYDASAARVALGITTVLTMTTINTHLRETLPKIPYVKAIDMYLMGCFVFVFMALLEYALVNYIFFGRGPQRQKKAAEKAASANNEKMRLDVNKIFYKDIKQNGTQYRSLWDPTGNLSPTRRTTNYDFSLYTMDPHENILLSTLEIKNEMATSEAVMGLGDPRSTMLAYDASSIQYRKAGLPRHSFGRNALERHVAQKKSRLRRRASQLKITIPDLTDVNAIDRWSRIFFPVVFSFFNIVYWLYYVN
T2 sequence (P18507 40-475 partner): as the sequence (P18507 40-475 partner) above

[5] = 2 mg/kg IV daily for 5 days, in 10% 2-Hydroxypropyl-β-cyclodextrin
[6] = 1 mg/kg s.c. + 5 mg/kg progesterone + 10 μg/kg 17β-estradiol

C#C[C@]1(O)CC[C@]2(C)C3CC[C@]4(C)/C(=N\OC)CCC4C3CC[C@H]2C1 (stereo partly drawn) [GR3053, 3α-ethynyl-3β-hydroxy-5α-androstan-17-methoxime]
100 μM GABA mediated current response, area under curve, Mean ± SEM [1]: −20 ± 2.1% | 100 μM GABA mediated current response, area under curve, Mean ± SEM ([1]; listed as 3α-ethynyl-3β-hydroxy-5α-androstan-17-methoxime): −20% | reduction (block) of the THDOC enhanced effect ([1]; 1 μM steroid, 100 nM THDOC): > 100% and 190% | effect on GABAs own effect on current response ([1]; 1 μM steroid): some antagonistic effect; also recorded: partial antagonistic effect | reduction of the GABA effect ([1]; 1 μM steroid): 20% | activation of the receptor / own effect in absence of GABA [1]: None

C[C@]12CC[C@@H](O)C[C@@H]1CC[C@@H]1[C@@H]2CC[C@]2(C)[C@@H](C(=O)CO)CC[C@@H]12 [THDOC, 3α, 21-dihydroxy-5α-pregnan-20-one, reference compound]
activation of the α3β3γ2L GABAA receptor by THDOC alone ([1]; 100 nM THDOC, in absence of GABA): did not activate

CC[C@]1(O)CC[C@]2(C)C3CC[C@]4(C)/C(=N\O)CCC4C3CC[C@H]2C1 (stereo partly drawn) [GR3055, 3α-ethyl-3β-hydroxy-5α-androstan-17-oxime]
100 μM GABA mediated current response, area under curve, Mean ± SEM [1]: −18 ± 3.4%, | 100 μM GABA mediated current response, area under curve, Mean ± SEM ([1]; listed as 3α-ethyl-3β-hydroxy-5α-androstan-17-oxime): −18% | reduction (block) of the THDOC enhanced effect ([1]; 1 μM steroid, 100 nM THDOC): 57% | effect on GABAs own effect on current response ([1]; 1 μM steroid): partial antagonistic effect | reduction of the GABA effect ([1]; 1 μM steroid): 18% | activation of the receptor / own effect in absence of GABA [1]: None

C#C[C@]1(O)CC[C@@]2(C)[C@@H](CC[C@@H]3[C@@H]2CC[C@]2(C)C(=O)CC[C@@H]32)C1 [3α-ethynyl-3β-hydroxy-5α-androstan-17-one]
Mean weight increase since arrival [2, 5]: 97.43 g | Mean weight increase since treatment start [2, 5]: 11.86 g | increase in weight compared to vehicle treated groups ([2]; 2 mg/kg IV, 5 days): significantly lower | Antagonism of 100 nM THDOC-enhancement, α3β3γ2 ([1]; 1 μM steroid + THDOC, Table 6): −166 ± 19.9%, | Effect against GABAs agonistic effect, α3β3γ2 ([1]; 1 μM steroid, Table 6): −46 ± 1.3%, | effect as a GAMSA or GAMS (GABAA receptor): no effect | weight difference compared to vehicle [3, 6]: -33 ± 4.4 g | weight difference versus E+P control rats [3, 6]: -23.9 ± 4.4 g | weight difference versus E+P control rats ([3]; 5 mg/kg s.c. + 5 mg/kg progesterone + 10 μg/kg 17β-estradiol): -20.4 ± 5.2 g | weight difference after 10 days of treatment compared to vehicle ([3]; s.c.): over 20% | Effect against GABAs agonistic effect, α1β2γ2 ([4]; 1 μM steroid): −1.9 ± 2.4% | Antagonism of 100 nM THDOC-enhancement, α1β2γ2 ([4]; 1 μM steroid + THDOC): No effect
